row,melting point,SMILES
1,160 to 161 °C,OCC1OC(n2cnc3c(NN4CCOCC4)nc(Cl)nc32)C(O)C1O (centres undefined)
2,209 to 211 °C,CC(O)(CF)C(=O)Nc1ccc(S(=O)(=O)c2ccncc2)cc1 (centres undefined)
3,83 to 85 °C,O=C1c2ccccc2C(=O)N1CCSCc1ccc(C2OCCO2)o1
4,58 to 60 °C,CC(C)(C)OC(=O)NCCN1CC2CN(Cc3ccccc3)CC(C1)O2
5,101 to 102 °C,COC(=O)[C@@H]1C[C@@H](O)CN1C(=O)c1ccc(C#N)cc1
6,165 °C,Cc1c(F)cccc1Cc1c(-c2ccccc2)c2cc(O)cnn2c1C(=O)N1CCN(C(=O)OC(C)(C)C)CC1
7,86 °C,OC(CCSC(=S)Nc1ccc(Cl)cn1)c1ccc(F)cc1 (centres undefined)
8,123 to 126 °C,CCOc1cc2c(-c3ccnc(Cl)c3)c(CO)c(CO)cc2cc1OC
9,185 to 195 °C,COc1cc(N2CCC(N3CCN(C)CC3)CC2)ccc1-c1nc2c(N[C@H]3[C@@H](C(N)=O)[C@@H]4C=C[C@H]3C4)c(Br)cnc2[nH]1
10,67.5 °C,N#CC(C#N)(CC=C(Cl)Cl)Cc1ccc(Cl)cc1
11,189 to 190 °C,NC(=NCC(F)(F)F)Nc1ccnc(OCCCCO)n1.[H][H]
12,138 °C,O=[N+]([O-])c1cccc(S(=O)(=O)NCCc2ccncc2)c1
13,128 to 130 °C,Fc1ccc(-c2cc(CNc3cc(C4CC=CS4)n[nH]3)n[nH]2)cc1 (centres undefined)
14,136 to 139 °C,COc1c(N2CCNC(C3CC3)C2)c(F)cc2c(=O)c(C(=O)O)cn([C@@H]3C[C@@H]3F)c12 (some centres undefined)
15,201 to 206 °C,Cn1nc(C(=O)NCc2ccc(Cl)cc2)c(=O)c2cc(C#CCO)cnc21
16,114 to 116 °C,CCCCCCCCCCCCCCCCCc1nc(N)nc(N)n1
17,196 to 197 °C,COC1(C(C)=O)CCC2C3CCC4=CC(=O)CCC4(C)C3CCC21C (centres undefined)
18,168 to 170 °C,CCOc1cc2ncc(C#N)c(Nc3ccccc3)c2cc1OCC
19,187 to 188 °C,NS(=O)(=O)c1ccc(-c2ccccc2-c2ccc(F)cc2)cc1
20,125 to 126 °C,CN(C)CCc1ccc(OCCCNc2nc(N)nn2C)cc1
21,33 to 35 °C,CCCCCCCCCCCCSC(=S)SSC(=S)SCCCCCCCCCCCC
22,200 to 203 °C,O=C(NC1=NCCCC1)Nc1ccc(Cl)cc1
23,163 to 165 °C,CC1(c2ccccc2)Cc2cc(O)c(Cl)c(Cl)c2C1O (centres undefined)
24,114 to 115 °C,CCOC(=O)c1cccc(-c2nc(-c3ccc(C)c(C)c3)cs2)c1

# More lines, now with the values behind:
row,SMILES,melting point
1,CCS(=O)(=O)Nc1cccc(C)c1C(N)c1cccn2c(C)c(C)nc12 (centres undefined),240 to 242 °C
2,COC(=O)c1ccc(NS(=O)(=O)c2ccc(Oc3cccc(Cl)c3C#N)cc2)cn1,153 to 155 °C
3,OCc1cn2c(n1)CN=C(c1ccccc1F)c1cc(Cl)ccc1-2,196 to 200 °C
4,CCOC(=O)CN(CC1CC2c3cccc4[nH]cc(c34)CC2N(C)C1)C(=O)NC(C)C (centres undefined),118 to 120 °C
5,O=C(Nc1ccc(Oc2ccnc(N3CCCC3)n2)c2ccccc12)c1cc(F)cc(N2CCOCC2)c1,205 to 207 °C
6,CCCCn1c(=O)c2cn(S(=O)(=O)CCCCl)nc2n(CCCC)c1=O,102 to 103 °C
7,N#CSCOc1cc(Cl)c(Cl)cc1Cl,103 to 105 °C
8,CC(C)CCNC(=O)C(c1ccccc1)c1ccccc1,128 °C
9,COCC1(C)Oc2ccc(C#N)cc2C2OC21 (centres undefined),88 to 90 °C
10,CN(C)C=CC(=O)c1c(-c2ccc(C(C)(C)NC(=O)OC(C)(C)C)cc2)ccc2nn(C3CCCCO3)cc12 (centres undefined),191 to 194 °C
11,O=C1CCCC(c2ccccc2)(c2ccccc2)N1,193 to 196 °C
12,CCc1ccc(CSc2nc(C)cc(=O)[nH]2)nc1,127 to 128 °C
13,O=C(Nc1ccc2ccc(-c3ccccc3)nc2n1)c1cccc(Cl)c1,175 °C
14,C[C@@H](n1cc(-c2ccccc2)nn1)[C@](O)(Cn1cncn1)c1ccc(F)cc1F,148 to 149 °C
15,COc1ccc(-c2c(C)[nH]c(=S)n2Nc2cccc(Cl)c2)cc1,226 °C
16,CON1Cc2c(cc3ccc4c(c3c2-c2ccc3c(c2)OCO3)OCO4)C1=O,214 to 216 °C
17,CCCCCCCCCCCCCCCCOC(=O)C(C)Nc1cccc(O)c1 (centres undefined),35 to 40 °C
18,CC(Oc1ccc(C(F)(F)F)cc1)c1ccnc2ncnn12 (centres undefined),100 to 102 °C
19,Cc1ccc2nc(-c3ccc(N)c(Br)c3)sc2c1,188 to 190 °C
20,CCOC(=O)c1ccc(C(F)(F)F)c(O)n1,141 to 142 °C
21,Cc1nc2c(o1)CCc1ccccc1C2=O,174 to 176 °C
22,C/C(Cl)=C\C(=O)Nc1ccc(C)cc1,108 to 109 °C
23,O=C(O)c1cc(-c2ccc(Cl)cc2)n(Cc2ccc(Cl)cc2Cl)n1,185 °C
24,CCOC(=O)C1=C(C)N=C(SCc2ccc(OC)cc2)N(C(=O)c2ccc([N+](=O)[O-])cc2)C1c1cccc([N+](=O)[O-])c1 (centres undefined),121 to 123 °C
25,CN(C)C(=O)Nc1cccc(S(N)(=O)=O)c1,193 to 194 °C

row,SMILES,melting point
1,CCCCCCCCCCCCCCCCCCNC(=O)OCC(CO)OC(=O)NC (centres undefined),92 to 93 °C
2,O=c1[nH]c(N2CCNC(CO)C2)cc2c(Br)cccc12 (centres undefined),> 230 °C
3,CCCCNc1ccc2cc(Cl)cnc2c1C#N,89 °C
4,CC1Nc2cc(F)c(F)cc2-n2cccc21 (centres undefined),93 to 95 °C
5,CC(=O)c1cc(S(N)(=O)=O)ccc1F,172 to 173 °C
6,CC#Cc1cc(Cl)nc(Nc2ccccc2)n1,121 to 124 °C
7,Cc1ccc([C@@H]2c3c(C)c(N4CCC(c5ccccc5)CC4)c(C)c(C)c3OC2(C)C)cc1,137 to 140 °C
8,CCC(CC)c1ccc(Cl)c2nc3n(c12)CCCCN3c1ccc(Cl)cc1Cl,160 to 162 °C
9,"CCCCOc1ccc(C#CC2(O)CN3CCC2CC3)cc1 (single isomer, unassigned; (+))",115 to 116 °C
10,COc1ccc(C=C2c3ccccc3C(=NOCC(=O)N3CCC(CO[N+](=O)[O-])CC3)c3ccccc32)cc1O,143 to 145 °C
11,O=C(O)c1cc(-n2c(-c3ccccc3)cc3c2-c2ccccc2CC3)ccc1O,215 to 218 °C
12,CC(CO)(CO)OCc1ccccc1F,74.5 to 75 °C
13,Clc1ccc(CN2C(=NCCCn3ccnc3)c3cccc4cccc2c34)cc1,90 to 91 °C
14,O=C1NC(c2ccccc2)C2=C1N=C1N=CNN1C2 (centres undefined),262 to 264 °C
15,COC(=O)c1ccc(NC(=O)c2ccccc2-c2ccccc2)cc1,160 to 161 °C
16,COC(=O)c1nc(Cl)c(F)c(N)c1SC,75 to 77 °C
17,O=C(Nc1ccc2ccc(Cl)nc2n1)c1ccc2ccccc2n1,260 °C
18,OCCOc1c(Br)cc(Br)c2cccnc12,128 to 131 °C
19,CCCCCCCCc1c(C)[nH]c(C)c(I)c1=O,224 to 226 °C
20,COc1ccc(NC(=O)c2coc(Br)c2)cc1N1CCN(C)CC1,185 to 187 °C
21,CC(C)(O)CCCCCc1cccc(C=Cc2cc(CO)cc(CO)c2)c1,108 to 109 °C
22,Cc1ccc2c(c1)Cn1ccnc1N2,265 °C
23,CCS(=O)(=O)CCC(=O)NNC(=O)N1Cc2cc(Cl)ccc2Oc2ccccc21,184 to 185 °C
24,CCOC(=O)Cn1c2cccccc-2c(C(=O)OCC)c1=O,115 to 120 °C
25,CCOC(=O)N(c1ccccc1)c1cc(Cl)ccc1-n1nc(C(=O)O)nc1CCl,115 to 117 °C
